Values belong to the compound of their own block, whether it stands above or below them.
Experiments:
[1] = Induction of PD-L1 degradation in human NCI-H460 cells transfected with siRNA ABCB1 incubated for 2 hrs by Western blot analysis; details: NCI-H460, 2 h
[2] = Binding affinity to PD-L1 (unknown origin) assessed as dissociation constant; set-up: species or system Homo sapiens
[3] = Stability in mouse plasma assessed as half life; assay type: ADME, cell-free
[4] = Inhibition of PD-L1 (unknown origin) by FRET assay; set-up: species or system Homo sapiens
[5] = Inhibition of LAG-3/MHC-II (unknown origin) interaction by TR-FRET assay; set-up: species or system Homo sapiens
[6] = Inhibition of CTLA-4/CD80 (unknown origin) protein-protein interaction; set-up: species or system Homo sapiens
[7] = Inhibition of PD-L1 (unknown origin) by HTRF assay; set-up: species or system Homo sapiens
[8] = Inhibition of his-tagged CTLA-4/CD80 (unknown origin) protein-protein interaction by TR-FRET assay; set-up: species or system Homo sapiens
[9] = target: Programmed cell death protein 1/Programmed cell death 1 ligand 1 (Homo sapiens, UniProt Q9NZQ7); assay: Inhibition of human PD-1/PD-L1 incubated for 1 hr by HTRF assay; assay type: protein-complex assay
[10] = target: T1, V-type immunoglobulin domain-containing suppressor of T-cell activation (Homo sapiens, UniProt Q9H7M9); assay: Inhibition of N-terminal His-tagged human recombinant VISTA (1 to 161 residues) transfected in human Expi293 cells incubated for 60 mins by ELISA analysis; assay type: cell-based
T1 sequence (Q9H7M9 whole entry): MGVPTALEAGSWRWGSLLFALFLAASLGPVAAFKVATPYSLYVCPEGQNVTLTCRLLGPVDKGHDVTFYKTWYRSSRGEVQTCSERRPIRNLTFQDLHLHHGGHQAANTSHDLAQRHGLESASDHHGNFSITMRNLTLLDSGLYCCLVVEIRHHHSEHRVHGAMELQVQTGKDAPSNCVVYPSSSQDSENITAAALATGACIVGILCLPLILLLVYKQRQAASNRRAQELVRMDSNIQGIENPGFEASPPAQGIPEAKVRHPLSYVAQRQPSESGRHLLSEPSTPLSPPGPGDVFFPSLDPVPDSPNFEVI

[11] = Inhibition of VISTA/VSIG-3 (unknown origin) protein-protein interaction by TR-FRET assay
[12] = target: T1, V-type immunoglobulin domain-containing suppressor of T-cell activation; assay: biochemical
Description: Binding affinity to N-terminal His-tagged human recombinant VISTA (1 to 161 residues) transfected in human Expi293 cells assessed as dissociation constant incubated for 60 mins by SPR assay

Tubulin = assay: Inhibition of tubulin polymerization (unknown origin); assay type: protein-complex assay, Homo sapiens
[13] = Inhibition of human PD-L1 by HTRF assay
MC-38 = assay: Antitumor activity against mouse MC-38 cells implanted in C57BL/6N mouse assessed as reduction in tumor volume at 10 mg/kg, ip in presence of PD-L1 and measured after 10 days relative to control; assay type: functional; set-up: scale not given: the % may be the effect or the level left; details: time 10 day

Chain of Programmed cell death protein 1/Programmed cell death 1 ligand 1 (Q15116 whole entry, the tested form may be a part): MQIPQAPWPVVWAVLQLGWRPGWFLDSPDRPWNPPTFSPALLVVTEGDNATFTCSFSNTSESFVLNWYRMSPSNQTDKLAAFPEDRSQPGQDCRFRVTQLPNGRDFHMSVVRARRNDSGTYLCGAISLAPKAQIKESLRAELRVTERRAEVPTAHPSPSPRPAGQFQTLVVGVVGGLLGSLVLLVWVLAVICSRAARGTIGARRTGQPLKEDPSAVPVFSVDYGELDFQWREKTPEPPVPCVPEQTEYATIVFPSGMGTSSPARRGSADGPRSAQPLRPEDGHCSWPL
Chain of Programmed cell death protein 1/Programmed cell death 1 ligand 1 (Q9NZQ7 whole entry, the tested form may be a part): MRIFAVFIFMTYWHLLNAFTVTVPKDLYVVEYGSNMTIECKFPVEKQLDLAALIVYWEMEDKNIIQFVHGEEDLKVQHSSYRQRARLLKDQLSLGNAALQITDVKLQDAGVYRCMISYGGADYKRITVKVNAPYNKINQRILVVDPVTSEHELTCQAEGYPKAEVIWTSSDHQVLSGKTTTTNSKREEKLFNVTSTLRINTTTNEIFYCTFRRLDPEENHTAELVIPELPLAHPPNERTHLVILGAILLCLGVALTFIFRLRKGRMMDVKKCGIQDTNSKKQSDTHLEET

Compound: Cc1c(COc2ccc(CN3CCCCC3C(=O)NCCCn3cc(CCCC(=O)NCCCC[C@@H]4NC(=O)[C@@H](Cc5ccc(O)cc5)NC(=O)[C@H](CC(=O)O)NC(=O)CNC(=O)[C@H](CCCNC(=N)N)NC4=O)nn3)cc2Br)cccc1-c1ccccc1 (some centres undefined)
DC50 [1]: < 50000 nM

Compound: CN(C)C(=N)NC(=N)N [METFORMIN]
DC50 [1]: < 2000 nM

Compound: Cc1ccc([C@@H]2O[C@H](CO)[C@@H](O)[C@H](O)[C@H]2O)cc1Cc1ccc(-c2ccc(F)cc2)s1 [CANAGLIFLOZIN ANHYDROUS]
DC50 [1]: < 20000 nM

Compound: CCOC(=O)C(COC(=O)NCCSSCCNC(=O)O/N=C(\Nc1ccc(C)c(O)c1)c1nonc1N)NCc1cc(Cl)c(OCc2cccc(-c3ccccc3)c2Br)cc1OCc1ccnc(C#N)c1 (centres undefined)
IC50 [7]: < 100 nM

Compound: COc1ccc(-c2nc(N)nc(-c3cc(C)ccc3O)c2Cl)cc1
IC50 [9]: 2.44 nM

Compound: Cc1nc(C)c(C(=O)NNC(=O)Cc2ccccc2)cc1C(=O)NNC(=O)Cc1ccccc1
IC50 [9]: 1.09 nM

Compound: CN(C)c1n/c(=N/Cc2ccco2)ss1
IC50 [10]: 4500 nM
IC50 [11]: 9700 nM
Kd [12]: 6200 nM

Compound: C[C@@]1(C(=O)O)CC[C@]2(C)CC[C@]3(C)C4=CC(=O)c5c(cc(O)c(O)c5C=O)[C@]4(C)CC[C@@]3(C)[C@@H]2C1
DC50 [1]: < 5000 nM

Compound: Cc1c(COc2ccc(CN3CCCCC3C(=O)NCCOCCNC(=O)CCCCCn3cc(CCCC(=O)NCCCC[C@@H]4NC(=O)[C@@H](Cc5ccc(O)cc5)NC(=O)[C@H](CC(=O)O)NC(=O)CNC(=O)[C@H](CCCNC(=N)N)NC4=O)nn3)cc2Br)cccc1-c1ccccc1 (some centres undefined)
DC50 [1]: < 100 nM

Compound: N=c1[nH]c2c3c(c4[nH]c(=N)[nH]c4c2[nH]1)[C@@H](CNC(=O)c1cc(Br)c(Br)[nH]1)[C@@H]3CNC(=O)c1cc(Br)c(Br)[nH]1
DC50 [1]: < 5000 nM

Compound: Cc1c(COc2ccc(CN3CCCCC3C(=O)NCCOCCOCCOCCNC(=O)CCCCCn3cc(CCCC(=O)NCCCC[C@@H]4NC(=O)[C@@H](Cc5ccc(O)cc5)NC(=O)[C@H](CC(=O)O)NC(=O)CNC(=O)[C@H](CCCNC(=N)N)NC4=O)nn3)cc2Br)cccc1-c1ccccc1 (some centres undefined)
DC50 [1]: < 100 nM

Compound: COc1ccc2cc3[n+](cc2c1OC)CCc1cc2c(cc1-3)OCO2 [BERBERINE CHLORIDE]
DC50 [1]: < 2000 nM

Compound: CN(C)c1n/c(=N/Cc2cccs2)ss1
IC50 [10]: 6400 nM

Compound: CCOC(=O)C1=C(COCCS)NC(C)=C(C(=O)OC)C1c1ccccc1Cl (centres undefined)
DC50 [1]: < 10000 nM

Compound: COc1ccc(/C=C\c2cc(OC)c(OC)c(OC)c2)cc1OCc1ccc(CC=O)cc1
IC50 (Tubulin): 16100 nM
IC50 [13]: 48.8 nM

Compound: CCCCCN(CCCCC)C(C)C(=O)c1cc(C)c2ccc3cc(C(C)C)ccc3c2c1 (centres undefined)
Activity (MC-38): 93.6%
IC50 [9]: 96 nM

The next lines start with the values.

Kd [2]: 156 nM
half-life [3]: < 30 min
IC50 [4]: 143 nM
Compound: Oc1cc(-c2ccc(C(F)(F)F)cc2)nn1-c1ccccn1

Kd [2]: 110 nM
IC50 [4]: 77 nM
Compound: Oc1cc(-c2ccc(Cl)cc2Cl)nn1-c1ccccn1

IC50 [5]: 8300 nM
Compound: Cc1cc(C(=O)COc2ccc(NC(=O)c3ccco3)cc2)c(C)n1-c1ccccc1

Kd [2]: 1200 nM
IC50 [4]: 1100 nM
Compound: Oc1cc(-c2cccc(C(F)(F)F)c2)nn1-c1ccccn1

IC50 [6]: 1500 nM
Compound: COc1ccc(-c2nc(CO/N=C/c3ccccc3Cl)co2)cc1

Kd [2]: 98 nM
IC50 [4]: 92 nM
Compound: Cc1cc(O)n(-c2ccccc2)n1

IC50 [8]: 1000 nM
Compound: Clc1ccc(C2=NN(c3ccccc3)C(c3ccco3)C2)cc1 (centres undefined)

IC50 [5]: 4200 nM
Compound: Cc1cc(C(=O)COc2ccc(NC(=O)c3ccco3)cc2)c(C)n1Cc1ccccc1

IC50 [6]: 1300 nM
Compound: O=C(CSc1ccccc1Cl)N1N=C(c2cccs2)CC1c1ccco1 (centres undefined)

IC50 [6]: 970 nM
Compound: Clc1ccc(C2=NN(Cc3ccccc3)CC2c2ccccc2)cc1 (centres undefined)

IC50 [10]: 256000 nM
Compound: Cc1cccc2nc(-c3cccc(CNCCO)c3)[nH]c12

IC50 [10]: 1100 nM
Compound: Cc1c(-c2ccccc2)ccc2nc(-c3ccc(CNCCO)cc3)[nH]c12

IC50 [8]: 4100 nM
Compound: Clc1ccc(C2CN(c3ccccc3)N=C2c2ccco2)cc1 (centres undefined)

IC50 [6]: 1900 nM
Compound: COc1ccccc1C1CN(c2ccccc2)N=C1c1cccs1 (centres undefined)

IC50 [5]: > 50000 nM
Compound: CC(=O)Nc1ccc(OCC(=O)c2cc(C)n(C(C)C)c2C)cc1

IC50 [8]: 5160 nM
Compound: O=[N+]([O-])c1cccc(/C=N/OCc2coc(-c3cccc(F)c3)n2)c1

IC50 [6]: 1400 nM
Compound: C/C(=N\OCC(=O)Nc1ccc(C)c(F)c1)c1nc(-c2ccccc2)[nH]c1C

IC50 [6]: 4500 nM
Compound: O=[N+]([O-])c1cccc(/C=N/OCc2csc(-c3ccccc3)n2)c1

DC50 [1]: < 10000 nM
Compound: O[C@@H](COc1cccc2ncccc12)CN1CCN([C@@H]2c3ccccc3[C@@H]3[C@H](c4ccccc42)C3(F)F)CC1 [ZOSUQUIDAR]

From ChEMBL document CHEMBL6103553, “Small molecule inhibitors targeting PD-L1, CTLA4, VISTA, TIM-3, and LAG3 for cancer immunotherapy (2020-2024)” (Eur J Med Chem, 2025)
